Experimental data: patent US20230346952A1, “CANNABINOID GLYCOSIDE PRODRUGS AND METHODS OF SYNTHESIS” (priority 2015, published 2023)

Columns and labels:
[1] = target: T1, human cannabinoid receptor type 1 (CB1R) (Homo sapiens, UniProt P21554); format: binding; details: 10 µM test compound; 2.0 nanomolar [3H] SR141716A; human recombinant Chem-1 cells; 90 minutes at 37 C
T1 construct: expressed in transfected cells; host or cells: Chem-1 cells

[2] = target: safety screen panel of human pharmacological targets (Homo sapiens, UniProt P21554); experiment: biochemical; details: read-out: percent inhibition: CB1 (h) (agonist radioligand)
Sequence of safety screen panel of human pharmacological targets (Homo sapiens, UniProt P21554) (P21554 whole entry): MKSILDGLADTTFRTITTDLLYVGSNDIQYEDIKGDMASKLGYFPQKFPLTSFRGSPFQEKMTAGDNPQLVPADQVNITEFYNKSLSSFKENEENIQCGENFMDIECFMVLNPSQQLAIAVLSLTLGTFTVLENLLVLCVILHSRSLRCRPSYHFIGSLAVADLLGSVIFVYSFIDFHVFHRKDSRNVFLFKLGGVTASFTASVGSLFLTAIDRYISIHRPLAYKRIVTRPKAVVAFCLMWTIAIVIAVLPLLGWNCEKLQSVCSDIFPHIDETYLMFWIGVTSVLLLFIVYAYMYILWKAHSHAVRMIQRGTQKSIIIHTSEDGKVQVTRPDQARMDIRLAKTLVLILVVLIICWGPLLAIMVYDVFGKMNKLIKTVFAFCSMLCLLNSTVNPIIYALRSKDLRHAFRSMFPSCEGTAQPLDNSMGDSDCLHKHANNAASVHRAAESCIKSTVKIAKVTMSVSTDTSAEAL

[3] = target: safety screen panel of human pharmacological targets (Homo sapiens, UniProt P23219); experiment: biochemical; details: read-out: percent inhibition: COX1(h)
Sequence of safety screen panel of human pharmacological targets (Homo sapiens, UniProt P23219) (P23219 24-599): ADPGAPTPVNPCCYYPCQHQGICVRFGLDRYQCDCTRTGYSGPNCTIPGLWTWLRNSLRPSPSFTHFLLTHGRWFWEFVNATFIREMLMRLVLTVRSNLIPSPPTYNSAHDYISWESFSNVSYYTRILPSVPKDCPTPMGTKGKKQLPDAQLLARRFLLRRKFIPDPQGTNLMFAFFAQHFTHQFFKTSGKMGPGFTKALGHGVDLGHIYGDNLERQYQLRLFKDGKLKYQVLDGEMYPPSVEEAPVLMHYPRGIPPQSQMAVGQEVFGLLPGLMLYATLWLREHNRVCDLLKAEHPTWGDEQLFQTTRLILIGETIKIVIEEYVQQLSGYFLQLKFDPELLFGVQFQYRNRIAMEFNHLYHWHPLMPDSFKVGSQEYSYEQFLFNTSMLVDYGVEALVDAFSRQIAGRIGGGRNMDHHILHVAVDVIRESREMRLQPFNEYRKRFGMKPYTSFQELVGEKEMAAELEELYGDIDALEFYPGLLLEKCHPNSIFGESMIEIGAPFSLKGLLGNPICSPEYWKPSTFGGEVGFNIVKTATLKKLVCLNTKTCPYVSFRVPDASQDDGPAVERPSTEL

[4] = target: safety screen panel of human pharmacological targets (Homo sapiens, UniProt P28223); experiment: biochemical; details: read-out: percent inhibition: 5-HT2A (h) (agonist radioligand)
Sequence of safety screen panel of human pharmacological targets (Homo sapiens, UniProt P28223) (P28223 whole entry): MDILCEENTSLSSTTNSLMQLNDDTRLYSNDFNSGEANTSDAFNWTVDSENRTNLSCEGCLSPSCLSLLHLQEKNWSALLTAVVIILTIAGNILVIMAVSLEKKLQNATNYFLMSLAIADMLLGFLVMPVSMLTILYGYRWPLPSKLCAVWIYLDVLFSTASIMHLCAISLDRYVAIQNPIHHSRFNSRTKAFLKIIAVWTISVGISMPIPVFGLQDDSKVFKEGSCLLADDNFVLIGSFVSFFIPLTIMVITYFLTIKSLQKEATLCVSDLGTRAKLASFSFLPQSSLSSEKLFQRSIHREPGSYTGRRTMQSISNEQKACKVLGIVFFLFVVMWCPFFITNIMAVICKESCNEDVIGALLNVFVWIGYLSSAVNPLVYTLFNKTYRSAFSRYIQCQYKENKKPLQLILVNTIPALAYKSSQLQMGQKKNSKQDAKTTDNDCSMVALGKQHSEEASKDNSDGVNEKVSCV

[5] = target: safety screen panel of human pharmacological targets (Homo sapiens, UniProt P29274); experiment: biochemical; details: read-out: percent inhibition: A2A (h) (agonist radioligand)
Sequence of safety screen panel of human pharmacological targets (Homo sapiens, UniProt P29274) (P29274 whole entry): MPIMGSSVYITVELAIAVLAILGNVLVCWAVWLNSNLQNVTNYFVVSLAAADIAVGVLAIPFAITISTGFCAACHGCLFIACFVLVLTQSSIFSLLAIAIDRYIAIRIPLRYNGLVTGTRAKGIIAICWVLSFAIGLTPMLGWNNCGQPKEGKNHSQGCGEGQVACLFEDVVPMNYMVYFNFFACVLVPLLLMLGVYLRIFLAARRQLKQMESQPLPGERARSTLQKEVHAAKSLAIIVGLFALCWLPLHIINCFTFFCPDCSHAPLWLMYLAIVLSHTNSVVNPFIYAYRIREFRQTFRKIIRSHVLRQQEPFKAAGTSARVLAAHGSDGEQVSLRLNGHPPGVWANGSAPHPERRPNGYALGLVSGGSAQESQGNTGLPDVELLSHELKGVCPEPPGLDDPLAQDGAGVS

[6] = test system: Lallzyme Beta™ (Lallemand); experiment: In vitro digestion with Lallzyme Beta; details: 5 mg/ml Lallzyme Beta, 20 mM citrate buffer pH 4.0, 44° C.; HPLC
[7] = Rat plasma toxicokinetics post VB311 administration at 1,000 mg/kg; details: for relative amount in plasma: label = analyte
[8] = Rat plasma toxicokinetics post VB302 administration at 1,000 mg/kg; details: both, Sprague Dawley, po, 1000 mg/kg, AUC in plasma, post VB302 oral gavage 1,000 mg/kg, 1, 2, 6, 24 hours, label = analyte in plasma
[9] = Antimicrobial activity observed in phytocannabinoid glycosylation reaction mixtures; details: large-scale glycosylation reaction mixtures
[10] = test system: Vinotaste Pro (Novozymes); experiment: In vitro digestion with Vinotaste Pro; details: same digestion conditions as for Lallzyme Beta; HPLC
glycoside hydrolases = experiment: In vitro digestion screening with commercially available glycoside hydrolases (Table K); details: Enzyme 1 of Table K
[11] = 24 hours post VB311 oral gavage

T1 sequence (P21554 whole entry): as the sequence (P21554 whole entry) above

Row | Structure (SMILES) | percent displacement of [3H] SR141716A at human CB1R [1] [%] | inhibition at 10 µM [2] [%] | inhibition at 10 µM [3] [%] | inhibition at 10 µM [4] [%] | inhibition at 10 µM [5] [%] | digestion by Lallzyme Beta (extent / products) [6] | relative amount in plasma ([7]; 1 hour post VB311 oral gavage) | relative amount in plasma ([7]; 2 hours post VB311 oral gavage) | relative amount in plasma ([7]; 6 hours post VB311 oral gavage) | relative amount in plasma [7, 11] | plasma concentration of VB302 relative to VB311 ([7]; after VB311 administration) [x] | AUC [8] [ng·h/mL] | antimicrobial activity [9] | digestion by Vinotaste Pro (extent / products) [10] | digestion by glycoside hydrolase (activity / product) (glycoside hydrolases)
1 | CCCCCc1cc(O[C@@H]2O[C@H](CO)[C@@H](O)[C@H](O)[C@H]2O)c2c(c1)OC(C)(C)[C@@H]1CCC(C)=C[C@@H]21 [VB302, Δ9THC-1-O-glucopyranoside] | -3 | -3 | 30 | 11 | -11 | unable to hydrolyze VB302 back to THC | Minor quantities | Minor quantities | predominant THC-glycoside present in the plasma | relative abundance was greatly increased | 2.2 | 167000 | – | – | –
2 | CCCCCc1cc(O)c2c(c1)OC(C)(C)[C@@H]1CCC(C)=C[C@@H]21 [VB301, Δ9-Terahydrocannabinol, reference compound] | – | – | 9 | 92 | 63 | – | – | – | – | – | – | 72 | noticeable antimicrobial activity | – | –
3 | CCCCCc1cc(O[C@@H]2O[C@H](CO[C@@H]3O[C@H](CO)[C@@H](O)[C@H](O)[C@H]3O)[C@@H](O[C@@H]3O[C@H](CO)[C@@H](O)[C@H](O)[C@H]3O)[C@H](O)[C@H]2O)c2c(c1)OC(C)(C)[C@@H]1CCC(C)=C[C@@H]21 [VB311] | 3 | 3 | 11 | 4 | -4 | very low activity | relative majority of glycosides present in the plasma | majority of glycosides present in the plasma | extensively modified | almost completely digested | – | – | – | capable of hydrolyzing | digests VB311 to V310
